For test [1], the system named is Freund's Complete Adjuvant induced arthritis model of Sprague Dawley rats. The experiment in a line: In-vivo anti-inflammatory activity of Composition-7, Freund's Complete Adjuvant induced arthritis model (Example 18). Conditions: Composition-7 200 mg/kg body weight p.o., Prednisolone 10 mg/kg, daily for 35 days, vs CMC control. The source says: The in-vivo anti-inflammatory activity of composition-7, comprising the water extract of 36 g of Terminalia chebula, 18 g of methanol extract of Curcuma longa, 18 g of Boswellia serrata non-acidic resin extract (BNRE), 18 g of Boswellia serrata extract standardized to 75%-85% total acids by volumetric assay which contain 5% 3-O-acetyl-11-keto-β-boswellic acid (AKBA) and 10 g of excipients [Microcrystalline cellulose (MCC) and Syloid], so that their percentages in the composition are 36%, 18%, 18%, 18% and 10% respectively was evaluated by an in-vivo study in Freund's Complete Adjuvant induced arthritis model of Sprague Dawley rats.
Prednisolone was used as a positive control. The healthy male SD rats were selected and randomly divided into four groups containing six animals per group. The treatment group rats were supplemented daily with 200 mg/kg body weight of Composition-7 for 35 days. The positive control group was supplemented daily with Prednisolone at 10 mg/kg body weight. All supplements were diluted in 10 mL of 1% CMC for administration. The animals of control group received same volume of 1% CMC. […] Paw volumes and weight bearing capacities were respectively measured using Plethysmography equipment and Incapacitance Meter on the day of FCA injection and on 35th day of treatment. […]

Test [2] relates to Freund's Complete Adjuvant induced arthritis model of Sprague Dawley (SD) rats. The experiment in a line: In-vivo anti-inflammatory activity of Composition-1, Freund's Complete Adjuvant induced arthritis model (Example 17). The following applies: Composition-1 200 mg/kg body weight, Prednisolone 10 mg/kg, daily for 35 days, vs CMC control. The method, then: The in-vivo anti-inflammatory activity of composition-1, comprising the water extract of 50 g of Terminalia chebula, 25 g of methanol extract of Curcuma longa, 25 g of Boswellia serrata non-acidic resin extract (BNRE), so that their percentages in the composition are 50%, 25% and 25% respectively was evaluated by an in-vivo study in Freund's Complete Adjuvant induced arthritis model of Sprague Dawley (SD) rats.
Prednisolone was used as a positive control. The healthy male SD rats were selected and randomly divided into four groups containing six animals per group. The treatment group rats were supplemented daily with 200 mg/kg body weight of Composition-1 for 35 days. The positive control group was supplemented daily with Prednisolone at 10 mg/kg body weight. All supplements were diluted in 10 mL of 1% CMC for administration. The animals of control group received same volume of 1% CMC. At the 7th day, Freund's Complete Adjuvant (FCA) was injected subcutaneously in the sub-plantar region of the left hind paw of each animal. Paw volumes and weight bearing capacities were respectively measured using Plethysmography equipment and Incapacitance Meter on the day of FCA injection and on 35th day of treatment. The difference in volume of paw edema is considered as the inflammatory response. […]

On to `C[C@]12C=CC(=O)C=C1CC[C@@H]1[C@@H]2[C@@H](O)C[C@@]2(C)[C@H]1CC[C@]2(O)C(=O)CO` [Prednisolone], for which the “% inhibition of Paw edema” value in test [1] is recorded as 68.67%; in test [2], 72.73%.

For the origin of these results see patent publication US20210205401A1, “SYNERGISTIC DIETARY SUPPLEMENT COMPOSITIONS FOR THE PREVENTION, TREATMENT OR CONTROL OF INFLAMMATORY DISORDERS” (LAILA NUTRACEUTICALS, priority 2014, published 2021).
